Laboratory results from PubChem BioAssay (NCI).
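Values below derive from 48-hour exposures of cells grown in 96-well plates, with endpoints linearly interpolated between the two concentrations bracketing the appropriate inhibition level. Definition used: TGI = concentration required for complete inhibition of growth.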

These compounds were tested on SK-MEL-2 melanoma (assay: growth of human tumour cells (NCI), 48 h).

SMILES | TGI
CC1=NN(c2ccccc2)C2(C1)C(Cl)C(=O)N2c1nc2ccccc2s1 (stereo unspecified) | 78.1 µM
Cc1c(N=Nc2ccccc2)c(-c2ccccc2)n(C2OC(CO)C(O)C(O)C2O)c(=S)c1C#N (stereo unspecified) | 21.8 µM

What follows are compounds tested on ACHN renal (assay: growth of human tumour cells (NCI), 48 h).

SMILES | TGI
CC(=O)Nc1ccc(-c2nc3ccccc3s2)cc1Br | > 100 µM
CC(NC(=O)OCc1ccccc1)NC(=O)OC(C)(C)C (stereo unspecified) | > 100 µM
COc1nn(Cc2ccccn2)c2ccc([N+](=O)[O-])cc12 | > 100 µM
O=C(Nc1ccc(Cl)cc1)c1cc(S(=O)(=O)Nc2n[nH]c(Nc3ccc4ccccc4c3)n2)c(SSc2cc(Cl)c(C(=O)Nc3ccc(Cl)cc3)cc2S(=O)(=O)Nc2n[nH]c(Nc3ccc4ccccc4c3)n2)cc1Cl | 53.9 µM
CC1=NN(c2ccccc2)C2(C1)C(Cl)C(=O)N2c1nc2ccccc2s1 (stereo unspecified) | > 100 µM
Cc1c(N=Nc2ccccc2)c(-c2ccccc2)n(C2OC(CO)C(O)C(O)C2O)c(=S)c1C#N (stereo unspecified) | 18.8 µM

Each compound was assayed on 786-0 renal (assay: growth of human tumour cells (NCI), 48 h).

SMILES | TGI
CC(=O)Nc1ccc(-c2nc3ccccc3s2)cc1Br | > 100 µM
CC(NC(=O)OCc1ccccc1)NC(=O)OC(C)(C)C (stereo unspecified) | > 100 µM
COc1nn(Cc2ccccn2)c2ccc([N+](=O)[O-])cc12 | > 100 µM
O=C(Nc1ccc(Cl)cc1)c1cc(S(=O)(=O)Nc2n[nH]c(Nc3ccc4ccccc4c3)n2)c(SSc2cc(Cl)c(C(=O)Nc3ccc(Cl)cc3)cc2S(=O)(=O)Nc2n[nH]c(Nc3ccc4ccccc4c3)n2)cc1Cl | > 94.3 µM
CC1=NN(c2ccccc2)C2(C1)C(Cl)C(=O)N2c1nc2ccccc2s1 (stereo unspecified) | > 100 µM
Cc1c(N=Nc2ccccc2)c(-c2ccccc2)n(C2OC(CO)C(O)C(O)C2O)c(=S)c1C#N (stereo unspecified) | 18.8 µM

What follows are compounds tested on NCI-H522 lung (assay: growth of human tumour cells (NCI), 48 h).

SMILES | TGI
CC(=O)Nc1ccc(-c2nc3ccccc3s2)cc1Br | > 100 µM
CC(NC(=O)OCc1ccccc1)NC(=O)OC(C)(C)C (stereo unspecified) | > 100 µM
COc1nn(Cc2ccccn2)c2ccc([N+](=O)[O-])cc12 | > 100 µM
O=C(Nc1ccc(Cl)cc1)c1cc(S(=O)(=O)Nc2n[nH]c(Nc3ccc4ccccc4c3)n2)c(SSc2cc(Cl)c(C(=O)Nc3ccc(Cl)cc3)cc2S(=O)(=O)Nc2n[nH]c(Nc3ccc4ccccc4c3)n2)cc1Cl | 50.8 µM
CC1=NN(c2ccccc2)C2(C1)C(Cl)C(=O)N2c1nc2ccccc2s1 (stereo unspecified) | 58.9 µM
Cc1c(N=Nc2ccccc2)c(-c2ccccc2)n(C2OC(CO)C(O)C(O)C2O)c(=S)c1C#N (stereo unspecified) | 14.1 µM

The compounds below were run on NCI/ADR-RES ovarian (assay: growth of human tumour cells (NCI), 48 h).

SMILES | TGI
CC(=O)Nc1ccc(-c2nc3ccccc3s2)cc1Br | > 100 µM
CC(NC(=O)OCc1ccccc1)NC(=O)OC(C)(C)C (stereo unspecified) | > 100 µM
COc1nn(Cc2ccccn2)c2ccc([N+](=O)[O-])cc12 | > 100 µM
O=C(Nc1ccc(Cl)cc1)c1cc(S(=O)(=O)Nc2n[nH]c(Nc3ccc4ccccc4c3)n2)c(SSc2cc(Cl)c(C(=O)Nc3ccc(Cl)cc3)cc2S(=O)(=O)Nc2n[nH]c(Nc3ccc4ccccc4c3)n2)cc1Cl | > 85.4 µM
CC1=NN(c2ccccc2)C2(C1)C(Cl)C(=O)N2c1nc2ccccc2s1 (stereo unspecified) | 68.5 µM
Cc1c(N=Nc2ccccc2)c(-c2ccccc2)n(C2OC(CO)C(O)C(O)C2O)c(=S)c1C#N (stereo unspecified) | 46.6 µM

The compounds below were run on MDA-N (assay: growth of human tumour cells (NCI), 48 h).

SMILES | TGI
CC(=O)Nc1ccc(-c2nc3ccccc3s2)cc1Br | > 100 µM
CC(NC(=O)OCc1ccccc1)NC(=O)OC(C)(C)C (stereo unspecified) | > 100 µM
COc1nn(Cc2ccccn2)c2ccc([N+](=O)[O-])cc12 | 95.5 µM
O=C(Nc1ccc(Cl)cc1)c1cc(S(=O)(=O)Nc2n[nH]c(Nc3ccc4ccccc4c3)n2)c(SSc2cc(Cl)c(C(=O)Nc3ccc(Cl)cc3)cc2S(=O)(=O)Nc2n[nH]c(Nc3ccc4ccccc4c3)n2)cc1Cl | > 84.2 µM
CC1=NN(c2ccccc2)C2(C1)C(Cl)C(=O)N2c1nc2ccccc2s1 (stereo unspecified) | > 100 µM
Cc1c(N=Nc2ccccc2)c(-c2ccccc2)n(C2OC(CO)C(O)C(O)C2O)c(=S)c1C#N (stereo unspecified) | 20.1 µM

Each compound was assayed on SF-295 CNS (assay: growth of human tumour cells (NCI), 48 h).

SMILES | TGI
CC(=O)Nc1ccc(-c2nc3ccccc3s2)cc1Br | > 100 µM
CC(NC(=O)OCc1ccccc1)NC(=O)OC(C)(C)C (stereo unspecified) | > 100 µM
COc1nn(Cc2ccccn2)c2ccc([N+](=O)[O-])cc12 | > 100 µM
O=C(Nc1ccc(Cl)cc1)c1cc(S(=O)(=O)Nc2n[nH]c(Nc3ccc4ccccc4c3)n2)c(SSc2cc(Cl)c(C(=O)Nc3ccc(Cl)cc3)cc2S(=O)(=O)Nc2n[nH]c(Nc3ccc4ccccc4c3)n2)cc1Cl | 58.3 µM
CC1=NN(c2ccccc2)C2(C1)C(Cl)C(=O)N2c1nc2ccccc2s1 (stereo unspecified) | > 100 µM
Cc1c(N=Nc2ccccc2)c(-c2ccccc2)n(C2OC(CO)C(O)C(O)C2O)c(=S)c1C#N (stereo unspecified) | 55.8 µM

What follows are compounds tested on SNB-75 CNS (assay: growth of human tumour cells (NCI), 48 h).

SMILES | TGI
CC(=O)Nc1ccc(-c2nc3ccccc3s2)cc1Br | 78 µM
CC(NC(=O)OCc1ccccc1)NC(=O)OC(C)(C)C (stereo unspecified) | > 100 µM
COc1nn(Cc2ccccn2)c2ccc([N+](=O)[O-])cc12 | 93 µM
O=C(Nc1ccc(Cl)cc1)c1cc(S(=O)(=O)Nc2n[nH]c(Nc3ccc4ccccc4c3)n2)c(SSc2cc(Cl)c(C(=O)Nc3ccc(Cl)cc3)cc2S(=O)(=O)Nc2n[nH]c(Nc3ccc4ccccc4c3)n2)cc1Cl | 76.6 µM
CC1=NN(c2ccccc2)C2(C1)C(Cl)C(=O)N2c1nc2ccccc2s1 (stereo unspecified) | > 100 µM
Cc1c(N=Nc2ccccc2)c(-c2ccccc2)n(C2OC(CO)C(O)C(O)C2O)c(=S)c1C#N (stereo unspecified) | > 100 µM

Each compound was assayed on HCC-2998 colon (assay: growth of human tumour cells (NCI), 48 h).

SMILES | TGI
CC(=O)Nc1ccc(-c2nc3ccccc3s2)cc1Br | > 100 µM
CC(NC(=O)OCc1ccccc1)NC(=O)OC(C)(C)C (stereo unspecified) | > 100 µM
COc1nn(Cc2ccccn2)c2ccc([N+](=O)[O-])cc12 | > 100 µM
O=C(Nc1ccc(Cl)cc1)c1cc(S(=O)(=O)Nc2n[nH]c(Nc3ccc4ccccc4c3)n2)c(SSc2cc(Cl)c(C(=O)Nc3ccc(Cl)cc3)cc2S(=O)(=O)Nc2n[nH]c(Nc3ccc4ccccc4c3)n2)cc1Cl | 43.7 µM
CC1=NN(c2ccccc2)C2(C1)C(Cl)C(=O)N2c1nc2ccccc2s1 (stereo unspecified) | > 100 µM
Cc1c(N=Nc2ccccc2)c(-c2ccccc2)n(C2OC(CO)C(O)C(O)C2O)c(=S)c1C#N (stereo unspecified) | 30.9 µM

Each compound was assayed on OVCAR-8 ovarian (assay: growth of human tumour cells (NCI), 48 h).

SMILES | TGI
CC(=O)Nc1ccc(-c2nc3ccccc3s2)cc1Br | > 93.7 µM
CC(NC(=O)OCc1ccccc1)NC(=O)OC(C)(C)C (stereo unspecified) | > 100 µM
COc1nn(Cc2ccccn2)c2ccc([N+](=O)[O-])cc12 | > 100 µM
O=C(Nc1ccc(Cl)cc1)c1cc(S(=O)(=O)Nc2n[nH]c(Nc3ccc4ccccc4c3)n2)c(SSc2cc(Cl)c(C(=O)Nc3ccc(Cl)cc3)cc2S(=O)(=O)Nc2n[nH]c(Nc3ccc4ccccc4c3)n2)cc1Cl | > 71.9 µM
CC1=NN(c2ccccc2)C2(C1)C(Cl)C(=O)N2c1nc2ccccc2s1 (stereo unspecified) | > 100 µM
Cc1c(N=Nc2ccccc2)c(-c2ccccc2)n(C2OC(CO)C(O)C(O)C2O)c(=S)c1C#N (stereo unspecified) | > 100 µM

What follows are compounds tested on HOP-92 NSCLC (assay: growth of human tumour cells (NCI), 48 h).

SMILES | TGI
CC(=O)Nc1ccc(-c2nc3ccccc3s2)cc1Br | > 100 µM
CC(NC(=O)OCc1ccccc1)NC(=O)OC(C)(C)C (stereo unspecified) | > 100 µM
COc1nn(Cc2ccccn2)c2ccc([N+](=O)[O-])cc12 | 84.2 µM
O=C(Nc1ccc(Cl)cc1)c1cc(S(=O)(=O)Nc2n[nH]c(Nc3ccc4ccccc4c3)n2)c(SSc2cc(Cl)c(C(=O)Nc3ccc(Cl)cc3)cc2S(=O)(=O)Nc2n[nH]c(Nc3ccc4ccccc4c3)n2)cc1Cl | 59.8 µM
CC1=NN(c2ccccc2)C2(C1)C(Cl)C(=O)N2c1nc2ccccc2s1 (stereo unspecified) | > 100 µM

The compounds below were run on UACC-62 melanoma (assay: growth of human tumour cells (NCI), 48 h).

SMILES | TGI
CC(=O)Nc1ccc(-c2nc3ccccc3s2)cc1Br | > 100 µM
CC(NC(=O)OCc1ccccc1)NC(=O)OC(C)(C)C (stereo unspecified) | > 100 µM
COc1nn(Cc2ccccn2)c2ccc([N+](=O)[O-])cc12 | > 100 µM
O=C(Nc1ccc(Cl)cc1)c1cc(S(=O)(=O)Nc2n[nH]c(Nc3ccc4ccccc4c3)n2)c(SSc2cc(Cl)c(C(=O)Nc3ccc(Cl)cc3)cc2S(=O)(=O)Nc2n[nH]c(Nc3ccc4ccccc4c3)n2)cc1Cl | 51.7 µM
CC1=NN(c2ccccc2)C2(C1)C(Cl)C(=O)N2c1nc2ccccc2s1 (stereo unspecified) | > 100 µM
Cc1c(N=Nc2ccccc2)c(-c2ccccc2)n(C2OC(CO)C(O)C(O)C2O)c(=S)c1C#N (stereo unspecified) | 13 µM

These compounds were tested on SK-MEL-5 melanoma (assay: growth of human tumour cells (NCI), 48 h).

SMILES | TGI
CC(=O)Nc1ccc(-c2nc3ccccc3s2)cc1Br | > 100 µM
CC(NC(=O)OCc1ccccc1)NC(=O)OC(C)(C)C (stereo unspecified) | > 100 µM
COc1nn(Cc2ccccn2)c2ccc([N+](=O)[O-])cc12 | > 100 µM
O=C(Nc1ccc(Cl)cc1)c1cc(S(=O)(=O)Nc2n[nH]c(Nc3ccc4ccccc4c3)n2)c(SSc2cc(Cl)c(C(=O)Nc3ccc(Cl)cc3)cc2S(=O)(=O)Nc2n[nH]c(Nc3ccc4ccccc4c3)n2)cc1Cl | 40.6 µM
CC1=NN(c2ccccc2)C2(C1)C(Cl)C(=O)N2c1nc2ccccc2s1 (stereo unspecified) | 73.3 µM

Each compound was assayed on M14 melanoma (assay: growth of human tumour cells (NCI), 48 h).

SMILES | TGI
CC(=O)Nc1ccc(-c2nc3ccccc3s2)cc1Br | > 100 µM
CC(NC(=O)OCc1ccccc1)NC(=O)OC(C)(C)C (stereo unspecified) | > 100 µM
COc1nn(Cc2ccccn2)c2ccc([N+](=O)[O-])cc12 | > 100 µM
O=C(Nc1ccc(Cl)cc1)c1cc(S(=O)(=O)Nc2n[nH]c(Nc3ccc4ccccc4c3)n2)c(SSc2cc(Cl)c(C(=O)Nc3ccc(Cl)cc3)cc2S(=O)(=O)Nc2n[nH]c(Nc3ccc4ccccc4c3)n2)cc1Cl | 59 µM
CC1=NN(c2ccccc2)C2(C1)C(Cl)C(=O)N2c1nc2ccccc2s1 (stereo unspecified) | > 100 µM
Cc1c(N=Nc2ccccc2)c(-c2ccccc2)n(C2OC(CO)C(O)C(O)C2O)c(=S)c1C#N (stereo unspecified) | 19.3 µM

What follows are compounds tested on MDA-MB-435 (assay: growth of human tumour cells (NCI), 48 h).

SMILES | TGI
CC(=O)Nc1ccc(-c2nc3ccccc3s2)cc1Br | > 100 µM
CC(NC(=O)OCc1ccccc1)NC(=O)OC(C)(C)C (stereo unspecified) | > 100 µM
COc1nn(Cc2ccccn2)c2ccc([N+](=O)[O-])cc12 | > 100 µM
O=C(Nc1ccc(Cl)cc1)c1cc(S(=O)(=O)Nc2n[nH]c(Nc3ccc4ccccc4c3)n2)c(SSc2cc(Cl)c(C(=O)Nc3ccc(Cl)cc3)cc2S(=O)(=O)Nc2n[nH]c(Nc3ccc4ccccc4c3)n2)cc1Cl | > 80.3 µM
CC1=NN(c2ccccc2)C2(C1)C(Cl)C(=O)N2c1nc2ccccc2s1 (stereo unspecified) | > 100 µM
Cc1c(N=Nc2ccccc2)c(-c2ccccc2)n(C2OC(CO)C(O)C(O)C2O)c(=S)c1C#N (stereo unspecified) | 19.5 µM

The compounds below were run on SN12C renal (assay: growth of human tumour cells (NCI), 48 h).

SMILES | TGI
CC(=O)Nc1ccc(-c2nc3ccccc3s2)cc1Br | > 100 µM
CC(NC(=O)OCc1ccccc1)NC(=O)OC(C)(C)C (stereo unspecified) | > 100 µM
